In PubChem BioAssay AID200 (DTP/NCI, 2004):
“And” between values parts separate entries of the source, which are not always exact repeats. Identical values can stand only once. Toxic doses and inconclusive results are not listed. Where a SMILES comes first, the peptide text is derived from it. The star is where a group is joined. Cbz = O=C(OCc1ccccc1)*

System: B6C3F1 mice, B16 melanoma ip, median survival T/C
Test: NCI In Vivo Anticancer Drug Screen. Data for tumor model B16 Melanoma (intraperitoneal) in B6C3F1 mice
Settings: endpoint: median survival time, higher = longer survival
Description: The antitumor activity of compounds was measured in mice bearing transplantable tumors. Survival or tumor size were measured and the results are expressed as the measurement made in the treated group (T) divided by the measurement made in the vehicle treated control group (C). The tumor model used in this assay is B16 Melanoma (intraperitoneal) in B6C3F1 mice

[1] = dose: 25.0 mg/kg/injection, schedule: Q01DX009 (ip), vehicle: Klucel (hydroxypropylcellulose) (HPC)
[2] = dose: 200.0 mg/kg/injection, schedule: Q01DX009 (ip), vehicle: Klucel (hydroxypropylcellulose) (HPC)
[3] = dose: 12.5 mg/kg/injection, schedule: Q01DX009 (ip), vehicle: Klucel (hydroxypropylcellulose) (HPC)
[4] = dose: 50.0 mg/kg/injection, schedule: Q01DX009 (ip), vehicle: Klucel (hydroxypropylcellulose) (HPC)

With `CCCCCn1c(C)cc(/C=C\c2ccc3cc(C)ccc3[n+]2C)c1C` the T/C (dose: 39.0 micrograms/kg/injection, schedule: Q01DX009 (ip), vehicle: Klucel (hydroxypropylcellulose) (HPC)) was 93 % of control, the T/C (dose: 78.0 micrograms/kg/injection, schedule: Q01DX009 (ip), vehicle: Klucel (hydroxypropylcellulose) (HPC)) was 95 % of control and the T/C (dose: 156.0 micrograms/kg/injection, schedule: Q01DX009 (ip), vehicle: Klucel (hydroxypropylcellulose) (HPC)) was 100 % of control. The T/C (dose: 312.0 micrograms/kg/injection, schedule: Q01DX009 (ip), vehicle: Klucel (hydroxypropylcellulose) (HPC)) was 100 % of control and the T/C (dose: 625.0 micrograms/kg/injection, schedule: Q01DX009 (ip), vehicle: Klucel (hydroxypropylcellulose) (HPC)) was 96 % of control.
`Nc1ccc(C(OC(=O)c2cc3ccccc3c(Cc3c(O)c(C(=O)OC(c4ccc(N)cc4)(c4ccc(N)cc4)c4ccc(N)cc4)cc4ccccc34)c2O)(c2ccc(N)cc2)c2ccc(N)cc2)cc1` was tested, and the T/C (dose: 0.78 mg/kg/injection, schedule: Q01DX009 (ip), vehicle: saline with Tween-80) was 112 % of control and 96 % of control, the T/C (dose: 3.12 mg/kg/injection, schedule: Q01DX009 (ip), vehicle: saline with Tween-80) was 111 % of control and 107 % of control and the T/C (dose: 3.13 mg/kg/injection, schedule: Q01DX009 (ip), vehicle: saline with Tween-80) was 104 % of control.
`C1CCN(c2c3c(nc4nnnn24)CCC3)CC1` was tested, and the T/C (dose: 50.0 mg/kg/injection, schedule: Q01DX009 (ip), vehicle: saline with Tween-80) was 91 % of control, the T/C (dose: 100.0 mg/kg/injection, schedule: Q01DX009 (ip), vehicle: saline with Tween-80) was 104 % of control and the T/C (dose: 200.0 mg/kg/injection, schedule: Q01DX009 (ip), vehicle: saline with Tween-80) was 92 % of control.
`Cn1c(-c2ccc(/C=N\N3CCN(/N=C/c4ccc(-c5c[n+]6ccsc6n5C)cc4)CC3)cc2)c[n+]2ccsc12` was tested, and the T/C (dose: 0.75 mg/kg/injection, schedule: Q01DX009 (ip), vehicle: saline with Tween-80) was 103 % of control, the T/C (dose: 1.5 mg/kg/injection, schedule: Q01DX009 (ip), vehicle: saline with Tween-80) was 104 % of control and the T/C (dose: 3.0 mg/kg/injection, schedule: Q01DX009 (ip), vehicle: saline with Tween-80) was 113 % of control. The T/C (dose: 6.0 mg/kg/injection, schedule: Q01DX009 (ip), vehicle: saline with Tween-80) was 113 % of control.
With `CCCCN(CCCC)CCNc1ccc(Cl)c2oc3cc(C)ccc3c(=O)c12` the T/C (dose: 50.0 mg/kg/injection, schedule: Q01DX009 (ip), vehicle: saline) was 94 % of control and the T/C (dose: 100.0 mg/kg/injection, schedule: Q01DX009 (ip), vehicle: saline) was 87 % of control.
`CC[n+]1ccc2c(C)c3[nH]c4ccc(O)cc4c3c(C)c2c1` was tested, and the T/C (dose: 0.39 mg/kg/injection, schedule: Q01DX009 (ip), vehicle: saline) was 110 % of control and 114 % of control, the T/C (dose: 0.78 mg/kg/injection, schedule: Q01DX009 (ip), vehicle: saline) was 122 % of control and the T/C (dose: 1.56 mg/kg/injection, schedule: Q01DX009 (ip), vehicle: saline) was 123 % of control.
In the case of `Cc1c(-c2ccc(C3CCCCC3)cc2)nc2ccc(F)cc2c1C(=O)O`, the T/C [1] is reported as 121 % of control, the T/C (dose: 100.0 mg/kg/injection, schedule: Q01DX009 (ip), vehicle: Klucel (hydroxypropylcellulose) (HPC)) is reported as 155 % of control and the T/C [2] is reported as 150 % of control. For the same molecule, the T/C (dose: 400.0 mg/kg/injection, schedule: Q01DX009 (ip), vehicle: Klucel (hydroxypropylcellulose) (HPC)) was 160 % of control and 179 % of control.
`CC(=O)O[C@H]1C(=O)[C@@]2(C)C(C(OC(=O)c3ccccc3)[C@]3(O)CC(OC(=O)[C@H](OC(=O)CCC(=O)O)C(NC(=O)c4ccccc4)c4ccccc4)C(C)=C1C3(C)C)C1(OC(C)=O)COC1C[C@@H]2OC(=O)CCC(=O)O` (some centres undefined) was tested, and the T/C (dose: 2.75 mg/kg/injection, schedule: Q01DX009 (ip), vehicle: sodium bicarbonate) was 109 % of control, the T/C (dose: 2.75 mg/kg/injection, schedule: Q01DX009 (ip), vehicle: water) was 120 % of control and the T/C (dose: 5.5 mg/kg/injection, schedule: Q01DX009 (ip), vehicle: sodium bicarbonate) was 113 % of control. For the same molecule, the T/C (dose: 5.5 mg/kg/injection, schedule: Q01DX009 (ip), vehicle: water) was 114 % of control, the T/C (dose: 11.0 mg/kg/injection, schedule: Q01DX009 (ip), vehicle: sodium bicarbonate) was 124 % of control and the T/C (dose: 22.0 mg/kg/injection, schedule: Q01DX009 (ip), vehicle: sodium bicarbonate) was 105 % of control. The T/C (dose: 22.0 mg/kg/injection, schedule: Q01DX009 (ip), vehicle: water) was 109 % of control, the T/C (dose: 44.0 mg/kg/injection, schedule: Q01DX009 (ip), vehicle: sodium bicarbonate) was 114 % of control and the T/C (dose: 44.0 mg/kg/injection, schedule: Q01DX009 (ip), vehicle: water) was 166 % of control.
In the case of `CCCCCCCCCCCCOCCCOP(=O)([O-])OCC[N+](C)(C)C`, the T/C (dose: 3.13 mg/kg/injection, schedule: Q01DX009 (ip), vehicle: saline) is reported as 100 % of control, the T/C (dose: 6.25 mg/kg/injection, schedule: Q01DX009 (ip), vehicle: saline) is reported as 100 % of control and the T/C (dose: 12.5 mg/kg/injection, schedule: Q01DX009 (ip), vehicle: saline) is reported as 100 % of control. The T/C (dose: 25.0 mg/kg/injection, schedule: Q01DX009 (ip), vehicle: saline) was 91 % of control.
With `CC(O)CNCCNc1ccc(NCCNCC(C)O)c2c1C(=O)c1c(O)ccc(O)c1C2=O` (centres undefined) the T/C (dose: 1.0 mg/kg/injection, schedule: Q01DX009 (ip), vehicle: distilled water + Tween-80) was 169 % of control, the T/C (dose: 2.0 mg/kg/injection, schedule: Q01DX009 (ip), vehicle: distilled water + Tween-80) was 194 % of control and the T/C (dose: 4.0 mg/kg/injection, schedule: Q01DX009 (ip), vehicle: distilled water + Tween-80) was 221 % of control. For the same molecule, the T/C (dose: 8.0 mg/kg/injection, schedule: Q01DX009 (ip), vehicle: distilled water + Tween-80) was 180 % of control.
With `N=C(N)c1ccc(N=Nc2c(O)ccc3cc(O)ccc23)cc1` the T/C (dose: 0.19 mg/kg/injection, schedule: Q01DX009 (ip), vehicle: Klucel (hydroxypropylcellulose) (HPC)) was 114 % of control, the T/C (dose: 0.39 mg/kg/injection, schedule: Q01DX009 (ip), vehicle: Klucel (hydroxypropylcellulose) (HPC)) was 99 % of control and the T/C (dose: 0.78 mg/kg/injection, schedule: Q01DX009 (ip), vehicle: Klucel (hydroxypropylcellulose) (HPC)) was 92 % of control. The T/C (dose: 1.56 mg/kg/injection, schedule: Q01DX009 (ip), vehicle: Klucel (hydroxypropylcellulose) (HPC)) was 92 % of control, the T/C (dose: 6.25 mg/kg/injection, schedule: Q01DX009 (ip), vehicle: Klucel (hydroxypropylcellulose) (HPC)) was 97 % of control and the T/C [3] was 97 % of control. The T/C [1] was 87 % of control and the T/C [4] was 89 % of control.
In the case of `CC(C)(C)C1CCCCC1`, the T/C [3] is reported as 97 % of control, the T/C [1] is reported as 92 % of control and the T/C [4] is reported as 88 % of control.
With `CO[C@H](C(=O)[C@@H](O)[C@@H](C)O)[C@@H]1Cc2cc3cc(OC4CC(OC5CC(O)C(O)C(C)O5)C(O)C(C)O4)c(C)c(O)c3c(O)c2C(=O)[C@H]1OC1CC(OC2CC(OC3CC(C)(O)C(O)C(C)O3)C(O)C(C)O2)C(O)C(C)O1` (some centres undefined) the T/C (dose: 0.06 mg/kg/injection, schedule: Q01DX009 (ip), vehicle: saline) was 111 % of control, the T/C (dose: 0.12 mg/kg/injection, schedule: Q01DX009 (ip), vehicle: saline) was 101 % of control and the T/C (dose: 0.25 mg/kg/injection, schedule: Q01DX009 (ip), vehicle: saline) was 101 % of control. The T/C (dose: 0.5 mg/kg/injection, schedule: Q01DX009 (ip), vehicle: saline) was 117 % of control, the T/C (dose: 1.0 mg/kg/injection, schedule: Q01DX009 (ip), vehicle: saline) was 105 % of control and the T/C (dose: 2.0 mg/kg/injection, schedule: Q01DX009 (ip), vehicle: saline) was 113 % of control.
In the case of `Nc1nc(-c2ccc(Cl)cc2)c(Br)c(=O)[nH]1`, the T/C (dose: 13.0 mg/kg/injection, schedule: Q01DX009 (ip), vehicle: saline with Tween-80) is reported as 104 % of control, the T/C (dose: 26.0 mg/kg/injection, schedule: Q01DX009 (ip), vehicle: saline with Tween-80) is reported as 110 % of control and the T/C (dose: 52.0 mg/kg/injection, schedule: Q01DX009 (ip), vehicle: saline with Tween-80) is reported as 98 % of control. The T/C (dose: 104.0 mg/kg/injection, schedule: Q01DX009 (ip), vehicle: saline with Tween-80) was 120 % of control.
For `COc1cccc2c1C(=O)c1c(O)c3c(c(O)c1C2=O)CC(O)(C(C)=O)CC3OC1CC(NC(=O)C(CCCCN)NC(=O)C2CCCN2)C(O)C(C)O1` (centres undefined), the T/C (dose: 1.25 mg/kg/injection, schedule: Q01DX001 (ip), vehicle: water) was 112 % of control, the T/C (dose: 2.5 mg/kg/injection, schedule: Q01DX001 (ip), vehicle: water) was 110 % of control and the T/C (dose: 20.0 mg/kg/injection, schedule: Q01DX001 (ip), vehicle: water) was 176 % of control. The T/C (dose: 40.0 mg/kg/injection, schedule: Q01DX001 (ip), vehicle: water) was 267 % of control.
`CCOC(=O)C(Cc1c[nH]c2ccccc12)NC(=O)C(Cc1ccccc1)NC(=O)C(Cc1cnc[nH]1)NC(=O)OCc1ccccc1` (stereo not drawn) (Cbz-His-Phe-Trp-OEt; configuration not given here) was tested, and the T/C [2] was 90 % of control.
In the case of `CN=C(N)NCCCCCCCCNC(N)=NC`, the T/C (dose: 6.25 mg/kg/injection, schedule: Q01DX009 (ip), vehicle: saline with Tween-80) is reported as 102 % of control and the T/C (dose: 12.5 mg/kg/injection, schedule: Q01DX009 (ip), vehicle: saline with Tween-80) is reported as 98 % of control.
